Measurements reported in patent US20150189883A1, “METHODS OF CONTROLLING INSECTS” (Syngenta Participations AG, priority 2012, published 2015).
Where two headings read alike, the source gives them in different places.

Experiments:
[1] = tested on: Chilo suppressalis (Rice Stem Borer); test: Chilo suppressalis (Rice Stem Borer) treated rice leaf petri dish test, mortality; type: in vivo; conditions: read-out: Control/%
Method: Nephotettix virescens (Green Leafhopper) Rice seedlings are treated with the diluted test solutions in a spray chamber. After drying, plants are infested with 10 N5 nymphs (3 replicates). 5 days after the treatment samples are checked for mortality. […] After drying, plants are infested with 20 N3 nymphs (2 replicates). 6-12 days after the treatment samples are checked for mortality. […] 10 larvae (L2) are added and the dish is covered with a filter tissue and a plastic lid. 5 days after treatment the percentage mortality is assessed (3 replicates per concentration).
The data in the comparative Examples below were obtained using the methods described above.

[2] = tested on: Nilaparvata lugens (Brown Plant Hopper); test: Nilaparvata lugens (Brown Plant Hopper) rice seedling spray test, mortality; type: in vivo; conditions: read-out: Control/%
[3] = Chilo suppressalis (Rice stem borer), application rate 0.2 ppm
[4] = Chilo suppressalis (Rice stem borer), application rate 0.8 ppm
[5] = Nilaparvata lugens (Brown plant hopper), application rate 25 ppm
[6] = Nilaparvata lugens (Brown plant hopper), application rate 50 ppm

Q: With Cc1cc(C2=NOC(c3cc(Cl)cc(Cl)c3)(C(F)(F)F)C2)ccc1C(=O)NC1CSC1 (stereo not shown) [Compound of the invention] as the molecule, how does the pest or weed control at 0.2 ppm ([1]; Chilo suppressalis) read?
A: Its pest or weed control at 0.2 ppm is 93%.

Q: And the pest or weed control at 0.8 ppm ([1]; Chilo suppressalis)?
A: Its pest or weed control at 0.8 ppm is 100%.

Q: With Cc1cc(C2=NOC(c3cc(Cl)cc(Cl)c3)(C(F)(F)F)C2)ccc1C(=O)NC1(C)CSC1 (stereo not shown) [Reference compound, reference compound] as the molecule, how does the pest or weed control at 0.2 ppm ([1]; Chilo suppressalis) read?
A: Its pest or weed control at 0.2 ppm is 30%.

Q: And the pest or weed control at 0.8 ppm ([1]; Chilo suppressalis)?
A: Its pest or weed control at 0.8 ppm is 40%.

Q: For Cc1cc(C2=NCC(c3cc(Cl)cc(Cl)c3)(C(F)(F)F)C2)ccc1C(=O)NC1CSC1 (stereo not shown) [drawing 21], which pest or weed control at 0.2 ppm [1, 3] is on record?
A: Its pest or weed control at 0.2 ppm is 40%.

Q: And the pest or weed control at 0.8 ppm [1, 4]?
A: Its pest or weed control at 0.8 ppm is 90%.

Q: Which results are given for Cc1cc(C2=NCC(c3cc(Cl)cc(Cl)c3)(C(F)(F)F)C2)ccc1C(=O)NC1(C)CSC1 (stereo not shown) [drawing 22]?
A: pest or weed control at 0.2 ppm [1, 3]: 30%; pest or weed control at 0.8 ppm [1, 4]: 60%

Q: Which results are given for Cc1cc(C2=NCC(c3cc(Cl)cc(Cl)c3)(C(F)(F)F)C2)ccc1C(=O)NC1CS(=O)(=O)C1 (stereo not shown) [drawing 23]?
A: pest or weed control at 0.2 ppm [1, 3]: 97%; pest or weed control at 0.8 ppm [1, 4]: 100%

Q: What does the source list for Cc1cc(C2=NCC(c3cc(Cl)cc(Cl)c3)(C(F)(F)F)C2)ccc1C(=O)NC1(C)CS(=O)(=O)C1 (stereo not shown) [drawing 24]?
A: pest or weed control at 0.2 ppm [1, 3]: 23%; pest or weed control at 0.8 ppm [1, 4]: 60%

Q: Cc1cc(C2=NOC(c3cc(Cl)c(Br)c(Cl)c3)(C(F)(F)F)C2)ccc1C(=O)NC1CSC1 (stereo not shown) [drawing 25] was tested. Which pest or weed control at 0.2 ppm ([1]; Chilo suppressalis) did it give?
A: The pest or weed control at 0.2 ppm was 97%.

Q: And the pest or weed control at 0.8 ppm ([1]; Chilo suppressalis)?
A: Its pest or weed control at 0.8 ppm is 100%.

Q: Which pest or weed control at 0.2 ppm ([1]; Chilo suppressalis) does the source give for Cc1cc(C2=NOC(c3cc(Cl)c(Br)c(Cl)c3)(C(F)(F)F)C2)ccc1C(=O)NC1(C)CSC1 (stereo not shown) [drawing 26] here?
A: The pest or weed control at 0.2 ppm was 40%.

Q: What about the pest or weed control at 0.8 ppm ([1]; Chilo suppressalis) of the same molecule?
A: The pest or weed control at 0.8 ppm was 80%.

Q: How did the pest or weed control at 0.2 ppm ([1]; Chilo suppressalis) turn out when O=C(NC1CSC1)c1ccc(C2=NO[C@@](c3cc(Cl)cc(Cl)c3)(C(F)(F)F)C2)cc1Cl [drawing 27] was run?
A: Its pest or weed control at 0.2 ppm is 93%.

Q: What about the pest or weed control at 0.8 ppm ([1]; Chilo suppressalis) of the same molecule?
A: The pest or weed control at 0.8 ppm was 100%.

Q: For CC1(NC(=O)c2ccc(C3=NO[C@@](c4cc(Cl)cc(Cl)c4)(C(F)(F)F)C3)cc2Cl)CSC1 [drawing 28], which pest or weed control at 0.2 ppm ([1]; Chilo suppressalis) is on record?
A: The pest or weed control at 0.2 ppm was 80%.

Q: What about the pest or weed control at 0.8 ppm ([1]; Chilo suppressalis) of the same molecule?
A: Its pest or weed control at 0.8 ppm is 97%.

Q: What does the source list for Cc1cc(C2=NOC(c3cc(Cl)cc(Cl)c3)(C(F)(F)F)C2)ccc1C(=O)NC1CSC1 (stereo not shown) [drawing 29]?
A: pest or weed control at 25 ppm ([2]; Nilaparvata lugens): 44%; pest or weed control at 50 ppm ([2]; Nilaparvata lugens): 79%

Q: Which results are given for Cc1cc(C2=NOC(c3cc(Cl)cc(Cl)c3)(C(F)(F)F)C2)ccc1C(=O)NC1(C)CSC1 (stereo not shown) [drawing 30]?
A: pest or weed control at 25 ppm ([2]; Nilaparvata lugens): 0%; pest or weed control at 50 ppm ([2]; Nilaparvata lugens): 0%

Q: For Cc1cc(C2=NCC(c3cc(Cl)cc(Cl)c3)(C(F)(F)F)C2)ccc1C(=O)NC1CSC1 (stereo not shown) [drawing 31], which pest or weed control at 25 ppm [2, 5] is on record?
A: Its pest or weed control at 25 ppm is 100%.

Q: And the pest or weed control at 50 ppm [2, 6]?
A: Its pest or weed control at 50 ppm is 100%.

Q: Which pest or weed control at 25 ppm [2, 5] does the source give for Cc1cc(C2=NCC(c3cc(Cl)cc(Cl)c3)(C(F)(F)F)C2)ccc1C(=O)NC1(C)CSC1 (stereo not shown) [drawing 32] here?
A: The pest or weed control at 25 ppm was 0%.

Q: What about the pest or weed control at 50 ppm [2, 6] of the same molecule?
A: The pest or weed control at 50 ppm was 0%.

Q: What does the source list for Cc1cc(C2=NCC(c3cc(Cl)cc(Cl)c3)(C(F)(F)F)C2)ccc1C(=O)NC1CS(=O)(=O)C1 (stereo not shown) [drawing 33]?
A: pest or weed control at 25 ppm [2, 5]: 93%; pest or weed control at 50 ppm [2, 6]: 100%

Q: Which pest or weed control at 25 ppm [2, 5] does the source give for Cc1cc(C2=NCC(c3cc(Cl)cc(Cl)c3)(C(F)(F)F)C2)ccc1C(=O)NC1(C)CS(=O)(=O)C1 (stereo not shown) [drawing 34] here?
A: The pest or weed control at 25 ppm was 0%.

Q: And the pest or weed control at 50 ppm [2, 6]?
A: Its pest or weed control at 50 ppm is 0%.

Q: For Cc1cc(C2=NOC(c3cc(Cl)c(Br)c(Cl)c3)(C(F)(F)F)C2)ccc1C(=O)NC1CSC1 (stereo not shown) [drawing 35], which pest or weed control at 25 ppm ([2]; Nilaparvata lugens) is on record?
A: Its pest or weed control at 25 ppm is 30%.

Q: And the pest or weed control at 50 ppm ([2]; Nilaparvata lugens)?
A: The pest or weed control at 50 ppm was 80%.

Q: Which pest or weed control at 25 ppm ([2]; Nilaparvata lugens) does the source give for Cc1cc(C2=NOC(c3cc(Cl)c(Br)c(Cl)c3)(C(F)(F)F)C2)ccc1C(=O)NC1(C)CSC1 (stereo not shown) [drawing 36] here?
A: Its pest or weed control at 25 ppm is 0%.

Q: What about the pest or weed control at 50 ppm ([2]; Nilaparvata lugens) of the same molecule?
A: Its pest or weed control at 50 ppm is 0%.

Q: How did the pest or weed control at 25 ppm ([2]; Nilaparvata lugens) turn out when O=C(NC1CSC1)c1ccc(C2=NO[C@@](c3cc(Cl)cc(Cl)c3)(C(F)(F)F)C2)cc1Cl [drawing 37] was run?
A: The pest or weed control at 25 ppm was 15%.

Q: And the pest or weed control at 50 ppm ([2]; Nilaparvata lugens)?
A: Its pest or weed control at 50 ppm is 45%.

Q: Which results are given for CC1(NC(=O)c2ccc(C3=NO[C@@](c4cc(Cl)cc(Cl)c4)(C(F)(F)F)C3)cc2Cl)CSC1 [drawing 38]?
A: pest or weed control at 25 ppm ([2]; Nilaparvata lugens): 0%; pest or weed control at 50 ppm ([2]; Nilaparvata lugens): 30%
